Experimental data: patent US11091522B2, “Peptidomimetic macrocycles and uses thereof” (priority 2018, dated 2021)
Entries after “also recorded” stand apart in the source; their conditions may differ. Like-named read-outs stand apart in the source and are kept apart here.

Columns and labels:
[1] = system: SJSA1 tumor cell proliferation; assay: Edu incorporation assay in SJSA1 xenograft tumors; format: in vivo, mice; details: day 9; AP1 BIW days 1, 4, 8; palbociclib QD×8
Source text: […]. The tumors were then homogenized and assayed by flow cytometry. […].

MCF7 cells = format: cell-based, human; details: Palbo 0.0 μM
[2] = In vitro metabolite profile, cryopreserved hepatocytes; format: in vitro ADME, mouse, rat, monkey, human; details: similar metabolite profile across species
[3] = 4-week multiple-dose GLP toxicity study in rats; format: in vivo
Procedure: (§1) The studies provided dose- and exposure-related assessments during both dosing and recovery periods, and the results were analyzed to define the maximum tolerated doses (MTD) and estimate the severely toxic dose for 10% (STD10) of rats and the highest non-severely toxic dose (HNSTD) in monkeys. All gross and microscopic signs of intolerance (e.g., reduced organ weights, sporadic findings of multi-tissue hemorrhage and hepatic necrosis) and changes in serum chemistry parameters were considered as secondary to red blood cell (RBC), platelet and/or white blood cell (WBC) depletions, or anorexia and dehydration in both species.

caspase activation = assay: Apoptosis assay (caspase activation) in SJSA1 cells, combinations; format: cell-based, human; details: 24 hour pulse treatment with AP1 (followed by CDK4/6 inhibitor where combined)
hERG potassium channels = hERG potassium channels (Homo sapiens, UniProt Q12809); details: in vitro
[4] = In vitro plasma protein binding; format: in vitro ADME, mouse, rat, dog, monkey, human; details: for free AP1 fraction: human and monkey plasma
plasma protein = assay: In vitro plasma protein binding; format: in vitro ADME, mouse, rat, dog, monkey, human
MCF7 tumor = format: in vivo; details: twice-weekly treatment, dose-dependent TGI
Source text: SJSA1 harbors DNA amplification of both MDM2 and CDK4 genes, which neighbor one another on chromosome 12q, while MCF7 harbors a deletion of the CDKN2A gene, the product of which is a natural inhibitor of MDM2 and CDK4. […]

[5] = Pharmacokinetic studies after IV administration of AP1; format: in vivo, mice; details: rats and monkeys
Source text: Using qualified liquid chromatography with tandem mass spectrometry (LC-MS-MS) methods for efficacy models and dose range-finding (DRF) studies, and validated methods for GLP safety studies, exposure was characterized in mice at the MED in efficacy models and in rats and monkeys at tolerated and non-tolerated doses in toxicology studies.

[6] = Single-dose rat study, clearance and excretion; format: in vivo
[7] = Safety pharmacology, cardiac function; format: in vivo; details: cynomolgus monkeys
[8] = system: phospho-Rb, phospho-FOXM1, p53, p21
MCF7 breast cancer cells = assay: Cellular senescence, β-galactosidase substrate X-gal, MCF7; format: cell-based, human; details: 0.3 μM each agent, 7 days
Source text: The cells were then washed and visualized with β-galactosidase substrate X-gal.

rat bone marrow = assay: In vivo micronucleus assay
[9] = 4-week multiple-dose GLP toxicity study in monkeys; format: in vivo
Procedure: as §1

RKO-E6 = assay: Cell viability assay (MTT), RKO-E6; details: RKO-E6 cells, p53 suppressed by HPV E6 oncogene
Procedure: (§2) Cells were trypsinized, counted, and seeded at pre-determined densities in 96-well plates one day prior to conducting the cell viability assay. […] 180 μL of the assay media was added to each well. Control wells were prepared with no cells, and the control wells received 200 μL of media.
(§3) Peptide dilutions were made at room temperature, and the diluted peptide solutions were added to the cells at room temperature. 10 mM stock solutions of the peptides were prepared in DMSO. […] A DMSO/sterile water (3% DMSO) solution was prepared for use in the control well. The working stock solution concentrations ranges were 300 μM, 100 μM, 30 μM, 10 μM, 3 μM, 1 μM, 0.3 μM, and 0 μM. The solutions were mixed well at each dilution step using a multichannel pipette.
(§4) Row H of the plate contained the controls. Wells H1-H3 received 20 μL of assay media. Rows H4-H9 received 20 μL of the 3% DMSO-water vehicle. Wells H10-H12 received media alone control with no cells.
(§5) 20 μL of a 10× concentration peptide stock solution was added to the appropriate well to achieve the final concentration in 200 μL in each well. […]
(§6) The viability of the cells was determined using MTT reagent. The viability of SJSA-1, RKO, RKO-E6, HCT-116 cells was determined on day 3. The viability of MCF7 cells was determined on day 5. The viability of SW-480 cells was determined on day 6. […] Cell viability was analyzed against the DMSO controls.

[10] = system: cytochrome P450 (CYP) enzymes; assay: Inhibition or induction of cytochrome P450 enzymes; format: in vitro ADME; details: clinically-relevant concentrations
Caspase 3 = Caspase 3 detection assay in SJSA-1 cells; format: cell-based, human; details: SJSA-1 osteosarcoma cells
Procedure: One the day of the assay, the media was replaced with fresh RPMI-11% FBS assay media. […] Control wells contained no cells, and received 200 μL of the assay media.
The solutions were serially diluted 33.3 times using sterile water to provide a range of 10× working stock solutions. […] 20 μL of the 10× working stock solutions were added to the appropriate wells. Row H of the plates had control wells. Wells H1-H3 received 20 μL of the assay media. […] Wells H10-H12 received media and had no cells. […] Nutlin-3a was diluted using the same dilution scheme as the peptides.
10 μL of the 10× stock solutions were added to the appropriate wells to achieve the final concentrations in a total volume of 100 μL. […] 48 h after incubation, 80 μL of the media was aspirated from each well. 100 μL of Caspase 3/7Glo assay reagent was added to each well. […] Data were analyzed as Caspase 3 activation over DMSO-treated cells.

[11] = system: human osteosarcoma, breast cancer, and melanoma models; assay: Murine xenograft models of human tumors, AP1 single agent; format: in vivo
p21 = p21 ELISA assay in SJSA-1 cells; format: cell-based, human; details: SJSA-1 osteosarcoma cells
Procedure: SJSA-1 cells were trypsinized, counted, and seeded at a density of 7500 cells/100 μL/well in 96-well plates one day prior to running the assay. […] 90 μL of the assay media was added to each well. The control wells contained no cells and received 100 μL of the assay media.
10 mM stock solutions of the peptides were prepared in DMSO. […] A DMSO/sterile water (3% DMSO) solution was prepared for use in the control wells. The working stock solution concentration range was 300 μM, 100 μM, 30 μM, 10 μM, 3 μM, 1 μM, 0.3 μM, and 0 μM. Each solution was mixed well at each dilution step using a multichannel pipette. Row H contained the control wells. Wells H1-H3 received 10 μL of the assay media. Wells H4-H9 received 10 μL of the 3% DMSO-water solution. Wells H10-H12 received media alone and contained no cells.
10 μL of a 10× peptide solution was added to the appropriate well to achieve a final concentration in a volume of 100 μL. For example, 10 μL of 300 μM peptide+90 μL of cells in media=30 μM final concentration in 100 μL volume in wells. The final concentration range used was 30 μM, 10 μM, 3 μM, 1 μM, 0.3 μM, and 0 μM.
20 h after incubation, the media was aspirated from the wells. […] The total protein contents of the lysates were measured using a BCA protein detection kit and BSA standards. […]

SW-480 = assay: Cell viability assay (MTT), SW-480; format: cell-based; details: SW480 cells, colorectal cancer cell line with mutated p53
Procedure: as §2, §3, §4, §5, §6

hERG potassium channels, sequence (Q12809 whole entry): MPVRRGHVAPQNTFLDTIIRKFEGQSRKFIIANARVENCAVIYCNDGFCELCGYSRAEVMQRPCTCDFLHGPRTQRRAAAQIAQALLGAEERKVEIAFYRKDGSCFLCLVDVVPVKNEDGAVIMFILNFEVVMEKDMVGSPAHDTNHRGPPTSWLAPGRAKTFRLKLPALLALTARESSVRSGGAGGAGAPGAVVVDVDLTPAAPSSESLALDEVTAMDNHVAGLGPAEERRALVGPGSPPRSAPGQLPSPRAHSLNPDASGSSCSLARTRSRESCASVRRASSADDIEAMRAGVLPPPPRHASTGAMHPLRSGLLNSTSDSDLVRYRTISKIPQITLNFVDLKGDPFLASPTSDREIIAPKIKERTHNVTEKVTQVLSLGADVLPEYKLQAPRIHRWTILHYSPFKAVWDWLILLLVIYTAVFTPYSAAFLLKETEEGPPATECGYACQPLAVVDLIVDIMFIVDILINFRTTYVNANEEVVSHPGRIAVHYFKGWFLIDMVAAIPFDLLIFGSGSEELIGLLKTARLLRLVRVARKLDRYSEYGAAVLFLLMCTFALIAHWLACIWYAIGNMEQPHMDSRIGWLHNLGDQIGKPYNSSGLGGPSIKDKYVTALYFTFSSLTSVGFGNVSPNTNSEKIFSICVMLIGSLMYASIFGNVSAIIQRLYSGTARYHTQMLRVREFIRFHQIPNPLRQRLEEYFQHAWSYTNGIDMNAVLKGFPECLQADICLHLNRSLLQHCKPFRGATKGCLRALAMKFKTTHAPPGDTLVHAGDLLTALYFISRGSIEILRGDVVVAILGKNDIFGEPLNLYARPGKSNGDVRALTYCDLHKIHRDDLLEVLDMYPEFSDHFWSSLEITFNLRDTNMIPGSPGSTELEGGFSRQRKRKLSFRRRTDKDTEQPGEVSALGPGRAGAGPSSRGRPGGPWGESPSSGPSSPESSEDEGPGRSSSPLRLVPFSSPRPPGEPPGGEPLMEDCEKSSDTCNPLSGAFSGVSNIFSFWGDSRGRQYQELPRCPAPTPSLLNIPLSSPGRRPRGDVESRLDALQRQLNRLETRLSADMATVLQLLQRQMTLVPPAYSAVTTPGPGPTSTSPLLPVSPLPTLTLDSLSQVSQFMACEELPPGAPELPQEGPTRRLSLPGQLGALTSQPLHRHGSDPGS

What does the source list for `CC(=O)N[C@@H](CC(C)C)C(=O)N[C@H](C(=O)N[C@@H](Cc1ccccc1)C(=O)N[C@]1(C)CCCCCC/C=C\CCC[C@@](C)(C(=O)N[C@@H](C)C(=O)N[C@@H](C)C(=O)N[C@@H](C)C(=O)N[C@@H](C)C(=O)N[C@@H](C)C(=O)N[C@H](C)C(N)=O)NC(=O)[C@H](CC(C)C)NC(=O)[C@H](CCC(N)=O)NC(=O)[C@H](C)NC(=O)[C@H](Cc2c[nH]c3ccccc23)NC(=O)[C@H](Cc2ccc(O)cc2)NC(=O)[C@H](CCC(=O)O)NC1=O)[C@@H](C)O` [AP1]?
tumor cell proliferation (Edu incorporation, flow cytometry) [1]: decreased cell proliferation; % inhibition (MCF7 cells; AP1 0.001 μM): −2.2%; % inhibition (MCF7 cells; AP1 0.003 μM): −19.2%; % inhibition (MCF7 cells; AP1 0.01 μM): −7.3%; % inhibition (MCF7 cells; AP1 0.03 μM): −9.1%; % inhibition (MCF7 cells; AP1 0.1 μM): 25.0%; % inhibition (MCF7 cells; AP1 0.3 μM): 62.3%; % inhibition (MCF7 cells; AP1 30 μM): 100.0%; % inhibition (MCF7 cells; AP1 .0003 μM): −18.1%; major biotransformation pathway [2]: Proteolysis; AUC(0-inf) ([3]; in vivo, intravenous, rat STD10, 10 mg/kg): 562 µg·h/mL; severely toxic dose in 10% of the animals (STD10) ([3]; rats, twice-weekly IV, 4 weeks): 10 mg/kg; caspase activation / apoptosis (caspase activation): sustained apoptotic effects; effects on hERG potassium channels (hERG potassium channels): No significant adverse findings; free AP1 fraction ([4]; AP1 up to 150 μM): 3-4%; free AP1 fraction ([4]; concentrations >200 μM): 12-14%; concentration at which a similar rise of free fraction was observed ([4]; plasma from hypoalbuminemic patients): > 100 µM; fraction unbound (plasma protein; mouse and rat plasma, up to 250 μM): < 0.02; fraction unbound at 2 μM (plasma protein; mouse, rat, dog, monkey, human, plasma): 0.02 to 0.08; minimum efficacious dose (MED) (MCF7 tumor): 5 mg/kg; accumulation following multiple doses [5]: no accumulation was observed; dose proportionality of exposure ([5]; plateau at highest dose of 4-week monkey study): Exposures generally increased proportionally with dose; predominant clearance pathway [6]: hepatobiliary metabolism and elimination; effects on cardiac function [7]: No significant adverse findings; p53 and p21 ([8]; SJSA1, after washout): sustained p53 and p21 up-regulation; p53 and p21 ([8]; SJSA1, single agent and in combination): up-regulated p53 and p21; cellular senescence (MCF7 breast cancer cells): induced cellular senescence; in vivo micronucleus (rat bone marrow): negative; AUC(0-inf) ([9]; in vivo, intravenous, monkey HNSTD, 5 mg/kg): 813 µg·h/mL; significant thrombocytopenia (<100,000×10^6/ml) ([9]; monkeys, mid- and high-dose levels): Only one animal at each of these dose levels developed significant thrombocytopenia; highest non-severely toxic dose (HNSTD) ([9]; monkeys, twice-weekly IV, 4 weeks): 5 mg/kg; peripheral blood platelets ([9]; varying doses, recovered upon cessation of dosing, female results): significant decrease in peripheral blood platelets; concentration at which not cytotoxic (RKO-E6): exceeding 30 μM; inhibition or induction of cytochrome P450 (CYP) enzymes [10]: negligible; also recorded: low likelihood of induction or inhibition; cellular caspase activity (Caspase 3): increases in cellular caspase activity; tumor growth inhibition (TGI) ([11]; IV dosages, each xenograft model): Statistically significant tumor growth inhibition; apoptosis, cleaved PARP, in vivo PD assays ([11]; xenograft tumors): increase in cleaved poly-ADP-ribose polymerase (PARP); p21, in vivo PD assays ([11]; xenograft tumors): increased p21; p53 protein, in vivo PD assays ([11]; xenograft tumors): increased p53 protein; tumor cell proliferation, in vivo PD assays ([11]; xenograft tumors): decreased tumor cell proliferation; p21 protein (p21): concentration-dependent increase in p21 protein; cell viability (SW-480): did not affect cell viability
